Measured values: ChEMBL document CHEMBL1287699, “N,N-Bis-(8-hydroxyquinoline-5-yl methyl)-benzyl substituted amines (HQNBA): peroxisome proliferator-activated receptor (PPAR-γ) agonists with neuroprotective properties” (Bioorg Med Chem Lett, 2010)
Calls of active or inactive are those of the source. The calls are words filed in the database; no cut-off is given here.

Legend:
HT-22 [1] = test: Neuroprotective activity in mouse HT22 cells assessed as protection against glutamate-induced toxicity at 0.5 to 1 uM after 24 hrs by MTT assay relative to control; assay type: functional
[2] = Cytotoxicity against mouse hippocampal HT22 cells at 1 uM after 24 hrs by MTT assay; assay type: cell-based, Hippocampus; settings: ht-22, 24 h
HT-22 [3] = test: Neuroprotective activity in mouse HT22 cells assessed as protection against glutamate-induced toxicity after 24 hrs by MTT assay; assay type: functional, cell-based; settings: HT-22, 24 h
HT-22 [4] = test: Inhibition of glutamate-induced decrease in GSH level in mouse HT22 cells at 1 uM after 24 hrs; assay type: functional, cell-based
HT-22 [5] = test: Neuroprotective activity in mouse HT22 cells assessed as protection against glutamate-induced toxicity at 1 uM after 24 hrs by MTT assay in presence of GW-9662; assay type: functional, cell-based

SMILES | %max (HT-22 [1]) [%] | Activity [2] [%] | EC50 (HT-22 [3]) [nM] | Activity (HT-22 [4]) | Activity (HT-22 [5])
Oc1ccc(CN(Cc2cccc(C(F)(F)F)c2)Cc2ccc(O)c3ncccc23)c2cccnc12 | 99 | 40.7 | 168 | Active | inactive
O=C(Nc1ccccc1)c1cc([N+](=O)[O-])ccc1Cl |  |  |  |  | inactive
Cc1c(C)c2c(c(C)c1O)CCC(C)(COc1ccc(CC3SC(=O)NC3=O)cc1)O2 (stereo not drawn) |  |  |  | inactive | 
Cc1ccc(CN(Cc2ccc(O)c3ncccc23)Cc2ccc(O)c3ncccc23)cc1 | 100 | 39.4 | 125 | Active | inactive
Oc1ccc(CN(Cc2cccs2)Cc2ccc(O)c3ncccc23)c2cccnc12 | 97 | 34 | 383 | Active | inactive
Oc1ccc(CN(Cc2ccc(C(F)(F)F)cc2)Cc2ccc(O)c3ncccc23)c2cccnc12 | 100 | 33.7 | 621 | Active | inactive
COc1cc(/C=C/c2cc(/C=C/c3ccc(O)c(OC)c3)n(-c3ccccc3)n2)ccc1O |  |  |  |  | Active
